# Results from patent publication US8883180B2 (priority 2007, dated 2014).
# Where two headings read alike, the source gives them in different places.
# What was measured:
# Type in all cases: in vivo
# [1] = system: larvae of the fall army worm (Spodoptera frugiperda); assay: Spodoptera frugiperda - test (sprayed cabbage leaves); conditions: mortality
# Method: (§1) Solvent: 7 parts by weight of dimethylformamide
# (§2) Emulsifier: 2 parts by weight of alkylaryl polyglycolether
# (§3) To produce a suitable preparation of active compound, 1 part by weight of active compound is mixed with the stated amount of solvent and emulsifier, and the concentrate is diluted with emulsifier-containing water to the desired concentration.
# Cabbage leaves (Brassica oleracea) are treated by being sprayed into the preparation of the active compound of the desired concentration and are infested with larvae of the fall army worm (Spodoptera frugiperda) as long as the leaves are still moist.
# After the specified period of time, the mortality in % is determined. 100% means that all the caterpillars have been killed; 0% means that none of the caterpillars have been killed.
# [2] = system: larvae of the mustard beetle (Phaedon cochleariae); assay: Phaedon cochleariae - test (sprayed cabbage leaves); conditions: for Efficacy in % after 4d: Table C-2, mortality; for Efficacy in % after 3d: Table C-1, mortality; for Efficacy in % after 6d: Table C-3, mortality
# Method: as §1, §2, §3
# Cabbage leaves (Brassica oleracea) are treated by being sprayed with the preparation of the active compound at the desired concentration and are infested with larvae of the mustard beetle (Phaedon cochleariae) as long as the leaves are still moist.
# After the specified period of time, the mortality in % is determined. 100% means that all the beetle larvae have been killed; 0% means that none of the beetle larvae have been killed.
# [3] = system: rice blast (Pyricularia oryzae); conditions: 20 ppm, inoculated 1 day after spraying, evaluated 5 days after inoculation
# [4] = system: rice blast (Pyricularia oryzae); conditions: 100 ppm, inoculated 5 days after spraying, evaluated 7 days after inoculation
# [5] = system: larvae of the Brown plant hopper (Nilaparvata lugens); assay: Nilaparvata lugens - test (sprayed rice plants); conditions: mortality
# Method: as §1, §2, §3
# Rice plants (Oryza sativa) are treated by being sprayed with the preparation of the active compound at the desired concentration and are infested with larvae of the Brown plant hopper (Nilaparvata lugens) as long as the leaves are still moist.
# After the specified period of time, the mortality in % is determined. 100% means that all the hopper larvae have been killed; 0% means that none of the hopper larvae have been killed.
# [6] = system: Blumeria graminis f. sp. hordei; assay: Blumeria test (barley)/SAR 5d; conditions: 1000 ppm, evaluated 7 days after inoculation
Compound,Efficacy in % after 4d ([2]; 4 ppm),Efficacy in % [3],Efficacy in % [4],"Efficacy in % ([6]; Table A-1, 1st leaf)","Efficacy in % ([6]; Table A-2, printed 1st leaf)",Efficacy in % after 3d ([5]; 4 ppm),also measured
"C/C(=N\C#N)N(C)Cc1ccc(Cl)nc1 [Acetamiprid, acetamiprid]",,,,,,,Efficacy in % after 6d ([1]; 0.16 ppm): 15%
"N#C/N=C1\SCCN1Cc1ccc(Cl)nc1 [Thiacloprid, thiacloprid]",45%,,,,,,
"N#Cc1ccccc1NC(=O)c1snc(Cl)c1Cl [Isotianil, 3,4-dichloro-N-(2-cyanophenyl)-5-isothiazolecarboxamide]",,35%,43%,44%,44%,,Efficacy in % after 6d ([1]; 200 ppm): 0%; Efficacy in % after 3d ([2]; 200 ppm): 0%; Efficacy in % after 4d ([2]; 200 ppm): 15%; Efficacy in % after 6d ([2]; 200 ppm): 0%; Efficacy in % after 3d ([5]; 200 ppm): 0%
"CN/C(=N\[N+](=O)[O-])NCc1cnc(Cl)s1 [Clothianidin, clothianidin]",,,,,,90%,Efficacy in % after 4d ([2]; 20 ppm): 70%; Efficacy in % after 6d ([2]; 4 ppm): 90%
"CNC(=O)c1cc(Cl)cc(C)c1NC(=O)c1cc(Br)nn1-c1ncccc1Cl [Chlorantraniliprole, chlorantraniliprole]",70%,0%,0%,11%,0%,0%,Efficacy in % after 6d ([1]; 0.032 ppm): 15%; Efficacy in % after 3d ([2]; 0.16 ppm): 0%; Efficacy in % after 4d ([2]; 0.8 ppm): 45%; Efficacy in % after 6d ([2]; 0.8 ppm): 15%
"O=[N+]([O-])NC1=NCCN1Cc1ccc(Cl)nc1 [Imidacloprid, imidacloprid]",,0%,0%,,,,Efficacy in % after 3d ([2]; 4 ppm): 0%
